Tests used:
[1] = test system: MDA-MB-231 (human breast adenocarcinoma) cells; assay: WST-1 cell viability assay, MDA-MB-231; type: cell-based; conditions: WST-1, 72 h exposure, ± SD, n = 6
Experimental: (§1) The synthesized compounds were tested using three cancer cell lines—human amelanotic melanoma (C-32), human breast adenocarcinoma (MDA-MB-231), and human lung adenocarcinoma (A549)—and, for comparison, normal human dermal fibroblasts (HFF-1). The WST-1 (water-soluble tetrazole salt) assay was used to evaluate the effect of the synthesized compounds on the viability of cultured cells.
(§2) Compounds were evaluated for their antiproliferative activity using three cultured cell lines: C-32 (human amelanotic melanoma, ATCC, Manassas, VA, USA), A549 (human lung adenocarcinoma, ATCC, Manassas, VA, USA), MDA-MB-231 (human breast adenocarcinoma derived from metastatic site: pleural effusion, ATCC, Manassas, VA, USA), together with HFF-1 (normal human dermal fibroblasts, ATCC, Manassas, VA, USA). The cultured cells were kept at 37 °C and 5% CO2.
(§3) Cells were seeded in 96-well plates at 5000/well in 100 μL of medium. After 24 h of incubation, the medium was replaced with a new one with the addition of the test substance. After 72 h, the following tests were performed: with crystal violet (determination of the number of adherent cells in the culture), the WST-1 test (determination of the relative number of living cells and their metabolic activity), and the LDH test (determination of the relative number of dead cells in cultures—cytotoxicity of the tested substance).
(§4) WST-1 test: The WST-1 test (Roche Diagnostics, Mannheim, Germany) allows one to determine the relative number of cells in cultures. Absorbance is directly proportional to the number of cells and their metabolic activity. The absorbance measurement is performed at λ = 450 nm (reference wave 600 nm).

[2] = test system: A549 (human lung adenocarcinoma) cells; assay: WST-1 cell viability assay, A549; type: cell-based; conditions: WST-1, 72 h exposure, ± SD, n = 6
Experimental: as §1, §2, §3, §4

[3] = test system: C-32 (human amelanotic melanoma) cells; assay: WST-1 cell viability assay, C-32; type: cell-based; conditions: WST-1, 72 h exposure, ± SD, n = 6
Experimental: as §1, §2, §3, §4

[4] = test system: HFF-1 (normal human dermal fibroblasts); assay: WST-1 cell viability assay, normal HFF-1; type: cell-based; conditions: ± SD, n = 6
Experimental: as §1, §2, §3, §4

S. aureus ATCC 29213 = assay: MTT assay of bacterial respiratory activity; type: cell-based, Staphylococcus aureus; conditions: S. aureus ATCC 29213
Source text: The MTT assay can be used to assess cell growth by measuring respiration. Bacterial cell respiratory activity (which is ultimately reflected in their viability) of less than 70% after exposure to the MIC values for each test compound is considered as a positive result for this test. This low level of cellular oxidative metabolism indicates inhibition of cell growth by inhibition of respiration. The lowest multiples of the MIC values by which inhibition of S. aureus ATCC 29213 viability [%] greater than 70% was achieved are shown in Table 4. […] Therefore, the antibacterial activity of the discussed compounds cannot be explained solely on the basis of respiration inhibition, so it is very difficult to draw a conclusion regarding the actual mechanism of action, since 8-HQs are multi-target agents, i.e., they affect several different targets at once (as discussed in the section dedicated to anticancer activity), which subsequently leads to the death of the treated resistant microorganisms.
Compounds were prepared as previously stated and diluted in CaMH broth for S. aureus to achieve the desired final concentrations. S. aureus bacterial suspension in sterile distilled water at 0.5 McFarland was diluted 1:3. Inocula were added to each well by multi-inoculator. Diluted mycobacteria in broth free from inhibiting compounds were used as the growth control. All compounds were prepared in duplicate. Plates were incubated at 37 °C for 24 h for S. aureus. After the incubation period, 10% well volume of MTT (3-(4,5-dimethylthiazol-2-yl)-2,5-diphenyltetrazolium bromide) reagent (Sigma) was mixed into each well and incubated at 37 °C 1 h for S. aureus. Then, 100 µL of 17% sodium dodecyl sulphate in 40% dimethylformamide was added to each well. The plates were read at 570 nm. The absorbance readings from the cells grown in the presence of the tested compounds were compared with uninhibited cell growth to determine the relative percent inhibition. The percent inhibition was determined through MTT assay. The percent viability is calculated through the comparison of a measured value and that of the uninhibited control: % viability = OD570E/OD570P × 100, where OD570E is the reading from the compound-exposed cells, while OD570P is the reading from the uninhibited cells (positive control). Cytotoxic potential is determined by a percent viability of <70% [81, 82].

SMILES | IC50 ([1]; Homo sapiens, MDA-MB-231) | IC50 ([2]; Homo sapiens, A549) | melting point | IC50 ([3]; Homo sapiens) | Conc.: lowest multiple of MIC with at least 70% inhibition of respiratory activity (S. aureus ATCC 29213) | IC50 [1] | IC50 ([4]; WST-1, 72 h exposure) | IC50 [2] | IC50 [3] | IC50 ([4]; HFF-1, WST-1, 72 h exposure)
C#CCNS(=O)(=O)c1ccc(OC)c2ncccc12 [6a, 8-Methoxy-N-(prop-2-yn-1-yl)quinoline-5-sulfonamide] | > 100 µM | > 100 µM | 161 to 163 °C | > 100 µM | – | – | – | – | – | –
C#CC(C)(C)NS(=O)(=O)c1ccc(OC)c2ncccc12 [6b, 8-Methoxy-N-(1,1-dimethyloprop-2-yn-1-yl)quinoline-5-sulfonamide] | > 100 µM | > 100 µM | 217 to 219 °C | 40.6 ± 4.9 µM | – | – | – | – | – | –
C#CCOc1cccc(NS(=O)(=O)c2ccc(OC)c3ncccc23)c1 [6e, 8-Methoxy-N-[3-(prop-2-yn-1-yloxy)phenyl]quinoline-5-sulfonamide] | > 100 µM | > 100 µM | 190 to 192 °C | 32.2 ± 4.8 µM | – | – | – | – | – | –
COc1ccc(S(=O)(=O)NCc2cn(Cc3ccccc3)nn2)c2cccnc12 [7b, N-[(1-Benzyl-1H-1,2,3-triazol-4-yl)methyl]-8-methoxyquinoline-5-sulfonamide] | > 100 µM | > 100 µM | 170 to 172 °C | > 100 µM | – | – | – | – | – | –
COc1ccc(S(=O)(=O)NCc2cn(-c3ccc(Cl)cc3)nn2)c2cccnc12 [7d, N-{[1-(4-Chlorophenyl)-1H-1,2,3-triazol-4-yl]methyl}-8-methoxyquinoline-5-sulfonamide] | > 100 µM | > 100 µM | 224 to 226 °C | > 100 µM | – | – | – | – | – | –
COc1ccc(S(=O)(=O)NC(C)(C)c2cn(Cc3ccccc3)nn2)c2cccnc12 [7f, N-[2-(1-Benzyl-1H-1,2,3-triazol-4-yl)propan-2-yl]-8-methoxyquinoline-5-sulfonamide] | > 100 µM | > 100 µM | 153 to 155 °C | > 100 µM | – | – | – | – | – | –
COc1ccc(S(=O)(=O)N(C)Cc2cn(Cc3ccccc3)nn2)c2cccnc12 [7g, N-Methyl-N-[(1-benzyl-1H-1,2,3-triazol-4-yl)methyl]-8-methoxyquinoline-5-sulfonamide] | > 100 µM | > 100 µM | 214 to 216 °C | 42.6 ± 3.4 µM | – | – | – | – | – | –
N.N.[Cl][Pt][Cl] [CPT, cisplatin, reference compound] | – | – | – | – | – | 10.3 ± 0.7 µM | 26 ± 2 µM | 17.3 ± 1.3 µM | 10.6 ± 0.5 µM | –
COc1cccc2c1C(=O)c1c(O)c3c(c(O)c1C2=O)C[C@@](O)(C(=O)CO)C[C@@H]3O[C@H]1C[C@H](N)[C@H](O)[C@H](C)O1 [DOX, doxorubicin, reference compound] | 0.6 ± 0.1 µM | 1 ± 0.1 µM | – | 0.3 ± 0.02 µM | – | – | – | – | – | 1.4 ± 0.1 µM

Further lines, with some results ahead:

IC50 ([1]; Homo sapiens, MDA-MB-231) | IC50 ([2]; Homo sapiens, A549) | melting point | IC50 ([3]; Homo sapiens) | Conc.: lowest multiple of MIC with at least 70% inhibition of respiratory activity (S. aureus ATCC 29213) | SMILES | IC50 [1] | IC50 ([4]; WST-1, 72 h exposure) | IC50 [2] | IC50 [3] | IC50 ([4]; HFF-1, WST-1, 72 h exposure)
> 100 µM | > 100 µM | 112 to 114 °C | 70.1 ± 8.4 µM | – | C#CCN(C)S(=O)(=O)c1ccc(OC)c2ncccc12 [6c, 8-Methoxy-N-methyl-N-(prop-2-yn-1-yl)quinoline-5-sulfonamide] | – | – | – | – | –
> 100 µM | > 100 µM | 217 to 219 °C | 86.4 ± 3.9 µM | – | C#CCOc1ccc(NS(=O)(=O)c2ccc(OC)c3ncccc23)cc1 [6d, 8-Methoxy-N-[4-(prop-2-yn-1-yloxy)phenyl]quinoline-5-sulfonamide] | – | – | – | – | –
> 100 µM | > 100 µM | 187 to 189 °C | 27.7 ± 2.2 µM | – | C#CCOc1ccccc1NS(=O)(=O)c1ccc(OC)c2ncccc12 [6f, 8-Methoxy-N-[2-(prop-2-yn-1-yloxy)phenyl]quinoline-5-sulfonamide] | – | – | – | – | –
> 100 µM | > 100 µM | 159 to 161 °C | > 100 µM | – | C=CCn1cc(CNS(=O)(=O)c2ccc(OC)c3ncccc23)nn1 [7a, N-[(1-Allyl-1H-1,2,3-triazol-4-yl)methyl]-8-methoxyquinoline-5-sulfonamide] | – | – | – | – | –
> 100 µM | > 100 µM | 194 to 196 °C | 89 ± 3.5 µM | – | COc1ccc(S(=O)(=O)NCc2cn(Cc3ccc(F)cc3)nn2)c2cccnc12 [7c, N-{[1-(4-Fluorobenzyl)-1H-1,2,3-triazol-4-yl]methyl}-8-methoxyquinoline-5-sulfonamide] | – | – | – | – | –
72.2 ± 3.6 µM | > 100 µM | 205 to 207 °C | > 100 µM | – | COc1ccc(S(=O)(=O)NCc2cn(CSc3ccccc3)nn2)c2cccnc12 [7e, N-({1-[(Phenylthio)methyl]-1H-1,2,3-triazol-4-yl}methyl)-8-methoxyquinoline-5-sulfonamide] | – | – | – | – | –
> 100 µM | > 100 µM | 139 to 141 °C | > 100 µM | – | COc1ccc(S(=O)(=O)Nc2ccc(OCc3cn(Cc4ccccc4)nn3)cc2)c2cccnc12 [7h, N-{4-[(1-Benzyl-1H-1,2,3-triazol-4-yl)methoxy]phenyl}-8-methoxyquinoline-5-sulfonamide] | – | – | – | – | –
– | – | – | – | 32 × MIC | O=C(O)c1cn(C2CC2)c2cc(N3CCNCC3)c(F)cc2c1=O [CPX, ciprofloxacin, reference compound] | – | – | – | – | –

— article PMC11396667, “Design, Synthesis, and Anticancer and Antibacterial Activities of Quinoline-5-Sulfonamides” (Molecules, 2024)
